Values quoted from earlier work as cited in patent US20260345798A1, “COMPOUNDS AND METHODS OF USE THEREOF” (Virginia Commonwealth University, priority 2023, published 2026).

Legend:
[1] = test system: PDZ domains in other sequence-similar proteins; details: cited from earlier work
MDA-9/Syntenin = molecular target: T1, MDA-9/Syntenin (Homo sapiens, UniProt O00560); details: literature comparison; cited from earlier work
T1 sequence (O00560 1-298): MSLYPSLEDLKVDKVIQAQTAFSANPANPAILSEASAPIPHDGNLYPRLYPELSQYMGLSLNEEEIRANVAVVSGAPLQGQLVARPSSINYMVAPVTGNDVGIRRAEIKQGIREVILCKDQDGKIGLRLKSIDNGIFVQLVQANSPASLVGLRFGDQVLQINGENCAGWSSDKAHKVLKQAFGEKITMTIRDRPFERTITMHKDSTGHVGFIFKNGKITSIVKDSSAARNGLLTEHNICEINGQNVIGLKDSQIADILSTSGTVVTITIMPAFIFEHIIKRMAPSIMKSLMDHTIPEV

cancer invasion = details: in vitro and in vivo, multiple experimental animal models; cited from earlier work
T cells = details: cited from earlier work
[2] = test system: non-transformed normal or transformed cells; details: other cancer contexts; cited from earlier work
[3] = test system: second PDZ2 domain of MDA-9/Syntenin; details: cited from earlier work

In the case of `Cc1cc(NC(=O)c2nc3nc4c(c(=O)n3[nH]2)CCC4)c(C)cc1NC(=O)CCc1nnc(-c2ccccc2)o1` [PDZ1i], the “binding to PDZ domains in other sequence-similar proteins” value [1] is given as “without appreciable binding”, the Kd (MDA-9/Syntenin) is given as 23 µM and the “blocking of cancer invasion” value (cancer invasion) is given as “effectively blocks cancer invasion”. For the same compound, the “T cell infiltration into the tumor environment” value (T cells) was “causes T cell infiltration into the tumor environment”, the “detrimental effect on cells” value [2] was “not detrimental” and the “binding to PDZ2 domain of MDA-9/Syntenin” value [3] was “without appreciable binding”.
